# From patent US12662469B2 (SIRONAX LTD, priority 2018, dated 2026)
# Test system: Cell Necrosis
# Assay: Cell necrosis assay / cell viability assay (necrosis inhibitor activity)
# Format: cell-based
# Conditions: necrosis inhibitor activity; EC data for 14-191 extrapolated; read-out: EC50
row,Structure (SMILES),EC50
1,"O=C(N1CCCN(c2ncc(F)cn2)CC1)N1N=CCC1c1ccccc1 (stereo not drawn) [Compound 96, (4-(5-fluoropyrimidin-2-yl)-1,4-diazepan-1-yl)(5-phenyl-4,5-dihydro-1H-pyrazol-1-yl)methanone]",1 to 10 µM
2,"O=C(N1CC(Cc2ccccc2F)C1)N1N=CCC1c1ccccc1 (stereo not drawn) [Compound 40, (3-(2-fluorobenzyl)azetidin-1-yl)(5-phenyl-4,5-dihydro-1H-pyrazol-1-yl)methanone]",0.001 to 1 µM
3,"O=C(N[C@H]1CC[C@H](Oc2ccccc2)C1)N1N=CCC1c1ccccc1 (stereo partly drawn) [Compound 25, N-((1S,3S)-3-phenoxycyclopentyl)-5-phenyl-4,5-dihydro-1H-pyrazole-1-carboxamide]",1 to 10 µM
4,"O=C(N1CCN(c2cccnn2)CC1)N1N=CCC1c1ccccc1 (stereo not drawn) [Compound 89, (5-phenyl-4,5-dihydro-1H-pyrazol-1-yl)(4-(pyridazin-3-yl)piperazin-1-yl)methanone]",1 to 10 µM
5,"C[C@H]1CN(c2ncc(F)cn2)CCN1C(=O)N1N=CCC1c1ccccc1 (stereo in doubt) [Compound 111A, (S)-(4-(5-fluoropyrimidin-2-yl)-2-methylpiperazin-1-yl)(5-phenyl-4,5-dihydro-1H-pyrazol-1-yl)methanone]",0.001 to 1 µM
6,"O=C(N1CCN(c2nccs2)CC1)N1N=CCC1c1ccccc1 (stereo not drawn) [Compound 92, (5-phenyl-4,5-dihydro-1H-pyrazol-1-yl)(4-(thiazol-2-yl)piperazin-1-yl)methanone]",0.001 to 1 µM
7,"O=C(N1CC(Cc2cccc(Cl)c2)C1)N1N=CCC1c1ccccc1 (stereo not drawn) [Compound 48, (3-(3-chlorobenzyl)azetidin-1-yl)(5-phenyl-4,5-dihydro-1H-pyrazol-1-yl)methanone]",0.001 to 1 µM
8,"COc1cccc(CC2CN(C(=O)N3N=CCC3c3ccccc3)C2)c1 (stereo not drawn) [Compound 39, (3-(3-methoxybenzyl)azetidin-1-yl)(5-phenyl-4,5-dihydro-1H-pyrazol-1-yl) methanone]",0.001 to 1 µM
9,"O=C(N1CCN(c2ncc(F)cn2)CC1)N1OCC[C@H]1c1ccccc1 [Compound 81, (S)-(4-(5-fluoropyrimidin-2-yl)piperazin-1-yl)(3-phenylisoxazolidin-2-yl)methanone]",0.001 to 1 µM
10,"O=C(N1CC(Oc2cnccn2)C1)N1N=CCC1c1ccccc1 (stereo not drawn) [Compound 119, (5-phenyl-4,5-dihydro-1H-pyrazol-1-yl)(3-(pyrazin-2-yloxy)azetidin-1-yl)methanone]",0.001 to 1 µM
11,"Cc1cnc(N2CCN(C(=O)N3N=CCC3c3ccccc3)CC2)nc1 (stereo not drawn) [Compound 87, (4-(5-methylpyrimidin-2-yl)piperazin-1-yl)(5-phenyl-4,5-dihydro-1H-pyrazol-1-yl)methanone]",0.001 to 1 µM
12,O=C(N1CC(Oc2ccc3ccc(=O)[nH]c3c2)C1)N1N=CCC1c1cc(F)cc(F)c1 (stereo not drawn) [Compound 189],0.001 to 1 µM
13,O=C(N1CC(Oc2ccc3cn[nH]c3c2)C1)N1N=CCC1c1cc(F)cc(F)c1 (stereo not drawn) [Compound 182],0.001 to 1 µM
14,"Cc1ccccc1CC1CN(C(=O)N2N=CCC2c2ccccc2)C1 (stereo not drawn) [Compound 37, (3-(2-methylbenzyl)azetidin-1-yl)(5-phenyl-4,5-dihydro-1H-pyrazol-1-yl) methanone]",0.001 to 1 µM
15,CNC(=O)c1cccc(OC2CN(C(=O)N3N=CCC3c3cc(F)cc(F)c3)C2)c1 (stereo not drawn) [Compound 163],0.001 to 1 µM
16,"N#Cc1ccc(OC2CN(C(=O)N3N=CCC3c3cc(F)cc(F)c3)C2)c(F)c1 (stereo not drawn) [Compound 136, 4-((1-(5-(3,5-difluorophenyl)-4,5-dihydro-1H-pyrazole-1-carbonyl)azetidin-3-yl)oxy)-3-fluorobenzonitrile]",0.001 to 1 µM

# Same assay, conditions: necrosis inhibitor activity; compounds outside 14-191; read-out: EC50
row,Structure (SMILES),EC50
1,"O=C(O)c1cc2sc(OC3CN(C(=O)N4N=CC[C@H]4c4cc(F)cc(F)c4)C3)nc2[nH]1 [Compound 259, (S)-2-((1(5-(3,5-difluorophenyl)-4,5-dihydro-1H-pyrazole-1-carbonyl)azetidin-3-yl)oxy)-4H-pyrrolo[2,3-d]thiazole-5-carboxylic acid]",0.001 to 1 µM
2,"O=C(N1CC(=Cc2ccn3nccc3c2)C1)N1N=CC[C@H]1c1cc(F)cc(F)c1 [Compound 288, (S)-(5-(3,5-difluorophenyl)-4,5-dihydro-1H-pyrazol-1-yl)(3-(pyrazolo[1,5-a]pyridin-5-ylmethylene)azetidin-1-yl)methanone]",0.001 to 1 µM
3,"NC(=O)c1nccc(O[C@@H]2CCN(C(=O)N3N=CC[C@H]3c3cc(F)cc(F)c3)C2)n1 [Compound 364, 4-(((R)-1-((S)-5-(3,5-difluorophenyl)-4,5-dihydro-1H-pyrazole-1-carbonyl)pyrrolidin-3-yl)oxy)pyrimidine-2-carboxamide]",0.001 to 1 µM
4,N#Cc1cccc([C@@H]2CC=NN2C(=O)N2CC(Oc3cc4c(cc3F)OCC(=O)N4)C2)c1 [Compound 195],0.001 to 1 µM
5,"O=C(N1CC(Oc2ccc(O)nc2)C1)N1N=CCC1c1cc(F)cc(F)c1 (stereo not drawn) [Compound 217, (5-(3,5-difluorophenyl)-4,5-dihydro-1H-pyrazol-1-yl)(3-((6-hydroxypyridin-3-yl)oxy)115zetidine-1-yl)methanone]",0.001 to 1 µM
6,"CNc1cccc(C=C2CN(C(=O)N3N=CC[C@H]3c3cc(F)cc(F)c3)C2)c1 [Compound 317, (S)-(5-(3,5-difluorophenyl)-4,5-dihydro-1H-pyrazol-1-yl)(3-(3-(methylamino)benzylidene)azetidin-1-yl)methanone]",0.001 to 1 µM
7,"O=C(N1CC(=Cc2ccc3oncc3c2)C1)N1N=CC[C@H]1c1cc(F)cc(F)c1 [Compound 318, (S)-(3-(benzo[d]isoxazol-5-ylmethylene)azetidin-1-yl)(5-(3,5-difluorophenyl)-4,5-dihydro-1H-pyrazol-1-yl)methanone]",0.001 to 1 µM
8,"CNc1nc(OC2CN(C(=O)N3N=CC[C@H]3c3cc(F)cc(F)c3)C2)c(F)cc1F [Compound 262, (S)-(3-((3,5-difluoro-6-(methylamino)pyridin-2-yl)oxy)azetidin-1-yl)(5-(3,5-difluorophenyl)-4,5-dihydro-1H-pyrazol-1-yl)methanone]",0.001 to 1 µM
9,"O=C(N1CCN(c2ncc3cc[nH]c3n2)CC1)N1N=CC[C@H]1c1cc(F)cc(F)c1 [Compound 279, (S)-(4-(7H-pyrrolo[2,3-d]pyrimidin-2-yl)piperazin-1-yl)(5-(3,5-difluorophenyl)-4,5-dihydro-1H-pyrazol-1-yl)methanone]",0.001 to 1 µM
10,"O=C1COc2cc(F)c(OC3CN(C(=O)N4N=CC[C@H]4c4cccc(F)c4)C3)cc2N1 [Compound 200, (S)-7-fluoro-6-((1-(5-(3-fluorophenyl)-4,5-dihydro-1H-pyrazole-1-carbonyl)azetidin-3-yl)oxy)-2H-benzo[b][1,4]oxazin-3(4H)-one]",0.001 to 1 µM
11,"O=C(N1CC(Oc2ccc3occc3c2)C1)N1N=CCC1c1cc(F)cc(F)c1 (stereo not drawn) [Compound 216, (3-(benzofuran-5-yloxy)115zetidine-1-yl)(5-(3,5-difluorophenyl)-4,5-dihydro-1H-pyrazol-1-yl)methanone]",0.001 to 1 µM
12,"O=C(N1CC(=Cc2ccc(F)cc2)C1)N1N=CCC1c1cncc(F)c1 (stereo not drawn) [Compound 309, (3-(4-fluorobenzylidene)azetidin-1-yl)(5-(5-fluoropyridin-3-yl)-4,5-dihydro-1H-pyrazol-1-yl)methanone]",0.001 to 1 µM
13,"O=C(N1CC(Oc2nc(NCCO)ncc2F)C1)N1N=CC[C@H]1c1cc(F)cc(F)c1 [Compound 266, (S)-(5-(3,5-difluorophenyl)-4,5-dihydro-H-pyrazol-1-yl)(3-((5-fluoro-2-((2-hydroxyethyl)amino)pyrimidin-4-yl)oxy)azetidin-1-yl)methanone]",0.001 to 1 µM
14,"CN1C(=O)C(CCO)Oc2cc(F)c(OC3CN(C(=O)N4N=CC[C@H]4c4cc(F)cc(F)c4)C3)cc21 (stereo partly drawn) [Compound 248, 6-((1-((S)-5-(3,5-difluorophenyl)-4,5-dihydro-1H-pyrazole-1-carbonyl)azetidin-3-yl)oxy)-7-fluoro-2-(2-hydroxyethyl)-4-methyl-2H-benzo[b][1,4]oxazin-3(4H)-one]",0.001 to 1 µM
15,"O=C(N1CC(Oc2cc3[nH]c(=O)ccc3cc2F)C1)N1N=CC[C@H]1c1cc(F)cc(F)c1 [Compound 253, (S)-7-((1-(5-(3,5-difluorophenyl)-4,5-dihydro-1H-pyrazole-1-carbonyl)140zetidine-3-yl)oxy)-6-fluoroquinolin-2(1H)-one]",0.001 to 1 µM
16,"O=C(N1CC(=Cc2ccc(Cl)cc2Cl)C1)N1N=CC[C@H]1c1cc(F)cc(F)c1 [Compound 314, (S)-(3-(2,4-dichlorobenzylidene)azetidin-1-yl)(5-(3,5-difluorophenyl)-4,5-dihydro-1H-pyrazol-1-yl)methanone]",0.001 to 1 µM
17,CNc1nccc(O[C@@H]2CCN(C(=O)N3N=CC[C@H]3c3cc(F)cc(F)c3)C2)n1 [Compound 370],0.001 to 1 µM
18,NC(=O)c1cc(O[C@@H]2CCN(C(=O)N3N=CC[C@H]3c3cc(F)cc(F)c3)C2)ncn1 [Compound 361],0.001 to 1 µM
19,"N#Cc1csc(OC2CN(C(=O)N3N=CCC3c3cncc(F)c3)C2)n1 (stereo not drawn) [Compound 281, 2-((1-(5-(5-fluoropyridin-3-yl)-4,5-dihydro-1H-pyrazole-1-carbonyl)azetidin-3-yl)oxy)thiazole-4-carbonitrile]",0.001 to 1 µM
20,"O=C(N1CC(Oc2ccc3ncc(=O)[nH]c3n2)C1)N1N=CC[C@H]1c1cc(F)cc(F)c1 [Compound 256, (S)-6-((1-(5-(3,5-difluorophenyl)-4,5-dihydro-1H-pyrazole-1-carbonyl)azetidin-3-yl)oxy)pyrido[2,3-b]pyrazin-3(4H)-one]",0.001 to 1 µM
21,"N#Cc1cc(O[C@@H]2CCN(C(=O)N3N=CC[C@H]3c3cc(F)cc(F)c3)C2)ccn1 [Compound 340, 4-(((R)-1-((S)-5-(3,5-difluorophenyl)-4,5-dihydro-1H-pyrazole-1-carbonyl)pyrrolidin-3-yl)oxy)picolinonitrile]",0.001 to 1 µM
22,NC(=O)c1cc(OC2CN(C(=O)N3N=CC[C@H]3c3cc(F)cc(F)c3)C2)ccc1F [Compound 220],0.001 to 1 µM
23,"O=C1Cc2cnc(N3CCN(C(=O)N4N=CC[C@H]4c4cc(F)cc(F)c4)CC3)nc2N1 [Compound 386, (S)-2-(4-(5-(3,5-difluorophenyl)-4,5-dihydro-1H-pyrazole-1-carbonyl)piperazin-1-yl)-5,7-dihydro-6H-pyrrolo[2,3-d]pyrimidin-6-one]",0.001 to 1 µM
